Results reported in US5808137A, “Chalcones and esters thereof with antiproliferative activity in uterus, ovary and breast tumors” (Indena S.p.A., priority 1994, dated 1998).
Where two headings read alike, the source gives them in different places.

What was measured:
[1] = tested on: estrogen receptors of type II; test: Binding affinity to estrogen receptors of type II (displacement of labelled estradiol in tumour cells); conditions: for IC50: read-out: IC50 *** Concentration giving a 50% displacement of labelled estradiol (40 nM) from the receptor, labelled estradiol 40 nM; for affinity to estrogen receptors of type II: result in words
Experimental: (§1) The evaluation of the estrogen receptor binding has been carried out on tumour cells of ovary and other organs. Cells were growth in a monolayer culture on the minimum essential medium added with calf serum and with 200 units/ml of penicillin to maintain the medium sterile. In order to make the tests reproducible, the cells were trypsinated every week and placed on plates at a density of […] and incubated at 37° C. under air atmosphere containing 5% CO2 and humidity. […] After 24 hours the substrate was replaced with fresh substrate and the chalcones dissolved in absolute ethanol were added. […] The treatment described above was repeated at 24 hours time intervals during the 72 hours time of the test. […] At the end of the incubation time, the cells were quickly washed with fresh substrate and incubated for 30 minutes with 1M NaOH. The radioactivity was measured by means of a scintiller and the binding specificity was calculated as the difference between the preparations containing or not diethylstilbestrol. The results are expressed as the number of binding sites per cell, according to conventional methods. The inhibition on the cell proliferation is evaluated by direct count of the cells comparing the growth of the controls versus that of the treated.

OVCA 433 cancer cells = test: Antiproliferative activity on OVCA 433 cancer cells in vitro (direct cell count); format: cell-based; conditions: read-out: IC50 ** Concentration giving a 50% inhibition on cell proliferation
Experimental: as §1

[2] = tested on: uterus, ovary and breast tumour cell lines; test: Antiproliferative activity on uterus, ovary and breast tumour cell lines; format: cell-based; conditions: result in words
Experimental: as §1

human leukemia cells = conditions: result in words; cited from earlier work
[3] = molecular target: estrogen receptors of type II; conditions: read-out: apparent affinity dissociation constant KD for estradiol; type II sites, rat uterus; cited from earlier work
[4] = OVCA433, OVCA 433 cancer cells in vitro, 72 hours test

COc1ccc(C(=O)/C=C/c2ccccc2O)c(O)c1CC=C(C)C [Chalcone S3, 2-hydroxyderricin]
IC50 [1]: 18 µM
affinity to estrogen receptors of type II [1]: remarkable affinity
IC50 (OVCA 433 cancer cells; [4]): 4.2 µM
antiproliferative activity on uterus, ovary and breast tumour cell lines [2]: marked antiproliferative activity

COc1ccc(C(=O)/C=C/c2ccc(O)cc2)c(O)c1CC=C(C)C [Chalcone S2, 4-hydroxyderricin]
IC50 [1]: 10.6 µM
affinity to estrogen receptors of type II [1]: remarkable affinity
IC50 (OVCA 433 cancer cells; [4]): 17 µM
antiproliferative activity on uterus, ovary and breast tumour cell lines [2]: marked antiproliferative activity

CC(C)=CCOc1ccc(C(=O)/C=C/c2ccccc2)c(O)c1 [Chalcone S7, Cordoin]
IC50 [1]: 4.2 µM
affinity to estrogen receptors of type II [1]: remarkable affinity
IC50 (OVCA 433 cancer cells; [4]): 6 µM
antiproliferative activity on uterus, ovary and breast tumour cell lines [2]: marked antiproliferative activity

CC(C)=CCOc1ccc(C(=O)/C=C/c2ccc(O)cc2)c(O)c1 [Chalcone S8, 4-hydroxycordoin, reference compound]
affinity to estrogen receptors of type II [1]: no affinity

O=c1c(O)c(-c2ccc(O)c(O)c2)oc2cc(O)cc(O)c12 [quercetin]
inhibiting activity on the proliferation of human leukemia cells (human leukemia cells): some inhibiting activity

C[C@]12CC[C@@H]3c4ccc(O)cc4CC[C@H]3[C@@H]1CC[C@@H]2O [estradiol]
Kd [3]: 0.01 to 0.02 µM

CC(C)=CCOc1ccc(C(=O)CCc2ccccc2)c(O)c1 [Chalcone S9, Dihydrocordoin, reference compound]
affinity to estrogen receptors of type II [1]: no affinity

O=C(/C=C/c1ccccc1)c1ccc(O)cc1O [Chalcone S5, 2',4'-dihydroxychalcone]
IC50 [1]: 0.6 µM
affinity to estrogen receptors of type II [1]: remarkable affinity
IC50 (OVCA 433 cancer cells; [4]): 2.5 µM
antiproliferative activity on uterus, ovary and breast tumour cell lines [2]: marked antiproliferative activity

COc1ccc(C(=O)/C=C/c2cccc(O)c2)c(O)c1CC=C(C)C [Chalcone S4, 3-hydroxyderricin]
IC50 [1]: 12.1 µM
affinity to estrogen receptors of type II [1]: remarkable affinity
IC50 (OVCA 433 cancer cells; [4]): 5 µM
antiproliferative activity on uterus, ovary and breast tumour cell lines [2]: marked antiproliferative activity

O=C(/C=C/c1ccc(O)cc1)c1ccc(O)cc1O [Chalcone S6, 4,2',4'-trihydroxychalcone]
IC50 [1]: 3.2 µM
affinity to estrogen receptors of type II [1]: remarkable affinity
IC50 (OVCA 433 cancer cells; OVCA433, 72 h): 5 µM
antiproliferative activity on uterus, ovary and breast tumour cell lines [2]: marked antiproliferative activity

CC(C)=CCc1c(O)ccc(C(=O)/C=C/c2ccccc2)c1O [Chalcone S1, Isocordoin]
IC50 [1]: 1.2 µM
affinity to estrogen receptors of type II [1]: remarkable affinity
IC50 (OVCA 433 cancer cells; [4]): 1.2 µM
antiproliferative activity on uterus, ovary and breast tumour cell lines [2]: marked antiproliferative activity
